# Laboratory results from patent publication US9359399B2, “Synthetic peptide amides” (Cara Therapeutics, Inc., priority 2006, dated 2016).
# Square brackets hold non-standard residues; d marks the D form. Peptide text beside a SMILES is read from it. * marks the point of attachment. Piperidinyl(4-(1-Pro-OH)) = O=C(O)[C@@H]1CCCN1C1CCN(*)CC1; dDab = NCC[C@@H](N)C(=O)O
# Experiments:
# [1] = tested on: capsaicin-induced ocular pain; assay: Capsaicin-induced ocular pain, palpebral opening in rabbits; assay type: in vivo, albino New Zealand strain rabbits; conditions: 10-30 min. post capsaicin
# [2] = target: human kappa opioid receptor (hKOR) (Homo sapiens (Human), UniProt P41145); assay: cell-based; conditions: HEK293, read-out: hKOR Efficacy(%)
# [3] = Membrane permeability assay, Caco-2 TC7 monolayers, apical-to-basolateral (Cerep); conditions: human
# [4] = target: mouse kappa opioid receptor (mKOR) (Mus musculus (Mouse), UniProt P33534); assay: cell-based; conditions: read-out: mKOR Efficacy(%)
# CYP2C19 = CYP2C19 (Homo sapiens (Human), UniProt P33261); assay: Cytochrome P450 CYP2C19 inhibition in human liver microsomes (omeprazole); conditions: percent remaining CYP activity, 10 uM test compound, 15 minutes
# CYP1A = assay: Cytochrome P450 CYP1A inhibition in human liver microsomes (ethoxyresorufin); assay type: in vitro ADME; conditions: percent remaining CYP activity, 10 uM test compound, 15 minutes
# Experimental: Inhibition of cytochrome P450 oxidase isozymes CYP1A, CYP2C9, CYP2C19, CYP2D6 and CYP3A4 by synthetic peptide amide compounds of the invention was determined according to the following methods performed by Cerep (Seattle, Wash.):
# In the cytochrome P450 CYP1A assay, human liver microsomes (0.2 mg/ml protein) were incubated for 15 minutes at 37° C. with 10 uM test compound, 1 uM ethoxyresorufin, 1.3 mM NADP, 3.3 mM glucose-6-phosphate and 0.4 U/ml glucose-6-phosphate dehydrogenase. In the absence of test compound, the ethoxyresorufin added as substrate is oxidized to resorufin, and in the presence of an inhibitor of the CYP isozyme, the amount of resorufin produced is reduced. Furafylline was used as a reference inhibitor.
# In each assay, the percent inhibition of the cytochrome P450 CYP P450 isozyme was determined as one hundred times the ratio of (1—the amount of product in the sample in the presence of the test compound) divided by the amount of product in the sample containing untreated isozyme.
# [5] = Pharmacokinetics in cynomolgus monkeys after intravenous bolus; conditions: cynomolgus monkey, in vivo
# CYP3A4 = CYP3A4 (Homo sapiens (Human), UniProt P08684); assay: Cytochrome P450 CYP3A4 inhibition in human liver microsomes (midazolam); conditions: percent remaining CYP activity, 10 uM test compound, 20 minutes
# CYP2C9 = CYP2C9 (Homo sapiens (Human), UniProt P11712); assay: Cytochrome P450 CYP2C9 inhibition in human liver microsomes (tolbutamide); conditions: percent remaining CYP activity, 10 uM test compound, 15 minutes
# CYP2D6 = CYP2D6 (Homo sapiens (Human), UniProt P10635); assay: Cytochrome P450 CYP2D6 inhibition in human liver microsomes (dextromethorphan); conditions: percent remaining CYP activity, 10 uM test compound, 15 minutes
# [6] = Pharmacokinetics in ICR mice after subcutaneous injection; conditions: mouse, in vivo, sc, 1 mg/kg, time for plasma concentration to fall by 50% after maximum
# Experimental: A single bolus of the synthetic peptide amide compound was administered by subcutaneous injection to ICR mice (n=6, males, body wt 23-37 g, Charles River, Wilmington, Mass.) and plasma samples taken at 5, 10, 15, 20, 30 60, 90, 120, and 180 minutes post-injection.
# Quantitation was performed against a calibration curve of the analyte in blank Cynomolgus monkey plasma using the same internal standard. Data analysis and the extraction of pharmacokinetic parameters were performed with the program PK Solutions 2.0 (Summit Research Services, Ashland, Ohio, USA).
# in vitro = conditions: human, Caco-2
# [7] = Inhibition of locomotion in mice (locomotion reduction assay, sedation); set-up: species or system ICR mice; conditions: mouse, in vivo, sc, administered subcutaneously, sedative effect
# Experimental: To determine the potential sedative effect of test compounds, the extent of locomotion reduction after the administration of the test compound or vehicle control can be determined and compared with a specialized apparatus designed for this purpose (Opto-Varimex Activity Meter). At the start of each experiment, each mouse was weighed and examined to determine good health. […] The subcutaneous injection was performed in the back of the neck of the mouse, pinched in a “tent” to allow proper access for the syringe needle. After injection, each animal was placed individually in Plexiglas boxes (43 cm×43 cm) inside the Opto-Varimex Activity Meter apparatus. Before the animal was placed in the apparatus, a thin layer of SANI-CHIPS rodent bedding was placed on the bottom of the Plexiglas box to provide a comfortable environment. Each Opto-Varimex Activity Meter apparatus was then turned on and data acquisition begun by the ATM3 Auto-Track System. The data were processed and results expressed in the same way as described for the writhing assay data in Example 47.
# Inhibition of acetic acid-induced writhing by a compound is an indication of an analgesic effect (also called an antinociceptive effect). Similarly, a reduction in locomotion caused by administration of the compound can be used as a measure of its general sedative effect.
# [8] = tested on: acetic acid-induced writhing in mice; assay: Acetic acid-induced writhing assay in mice; assay type: in vivo, ICR mice; conditions: ICR mice, administered subcutaneously
# Experimental: 12: 525-562; Ramabadran and Bansinath (1986) Pharm. Res. 3: 263-270]. Intraperitoneal administration of dilute acetic acid solution causes a writhing behavior in mice. A writhe is defined as a contraction of the abdominal muscles accompanied by an extension of the forelimbs and elongation of the body. The number of writhes observed in the presence and absence of test compounds is counted to determine the analgesic activity of the compounds.
# Each day a writhing assay was performed, a vehicle control group of mice (n=6-8) that were treated identically to the test group (except that test compound was omitted from the injection dose) was always included and the average total number of writhes in this group used as the absolute reference point defining 0% decrease in pain perception for all other mice receiving a test compound on that day. Specifically, the total number of writhes of each mouse receiving the test compound was converted to % decrease in pain perception according to the following equation:
# [formula] Where Wv is the mean number of writhes in vehicle-treated group and Wc is the number of writhes in compound-treated mouse.
# Male ICR mice, 23-37 grams in weight, were weighed and placed in individual observation chambers (usually a 4000 ml glass beaker) with a fine layer of SANI-CHIPS rodent bedding at the bottom. […] After administration of the compound or vehicle control, mice were returned to their individual observation chambers awaiting the intraperitoneal administration of acetic acid solution. […] and acetic acid injection, a dose corresponding to 10 ml/kg of a 0.6% (v/v) acetic acid solution was then injected into the right lower quadrant of the abdomen. Immediately after the injection, the mouse was returned to its observation chamber and the recording of the number of writhes begun immediately. The number of writhes was counted over a 15-min period starting from the time of acetic acid injection, the data being collected over three separate 5 minute time periods (0-5 min, 5-10 min, and 10-15 min).
# The data were reported as ED50, and Hill coefficient. […] The Hill coefficient is expressed as the arithmetic mean±sem calculated from the values obtained from the animals.
# For dose-response analysis, raw data were converted to % maximum possible effect (% MPE) using the formula: % MPE=((test score−vehicle-treated score)/(0−vehicle-treated score))*100. Raw data were analyzed using a one-way ANOVA followed by Dunnett's post-tests. […] Compounds were administered by the intravenous route.
structure (smiles),measurement,setting,value
"COc1ccc([C@@H]2Sc3ccccc3N(CCN(C)C)C(=O)[C@@H]2OC(C)=O)cc1 [Diltiazem, diltiazem, reference compound]",Mean palpebral opening (% Control),"[1]; Table VII, 10 mM, five animals",74.6 % Control
same,Mean palpebral opening (% Control),"[1]; Table VIII, 10 mM, ten animals",77.6 % Control
"CC(C)C[C@@H](NC(=O)[C@@H](Cc1ccccc1)NC(=O)[C@H](N)Cc1ccccc1)C(=O)N[C@H](CCN)C(=O)N1CCC(N2CCC[C@H]2C(=O)O)CC1 [Compound (12), D-Phe-D-Phe-D-Leu-D-Dbu4N-(4-piperidinyl)-L-prolinel-OH] (H-[dF][dF][dL][dDab]-{Piperidinyl(4-(1-Pro-OH))})",Emax,[2],100%
"CNCCCC[C@@H](NC(=O)[C@@H](CC(C)C)NC(=O)[C@@H](Cc1ccccc1)NC(=O)[C@H](N)Cc1ccccc1)C(=O)N1CCC(N2CCC[C@H]2C(=O)O)CC1 [Compound (6), D-Phe-D-Phe-D-Leu-(ε-Me)D-Lys-[N-(4-piperidinyl)-L-proline]-OH]","Papp A→B at 60 min, 10 uM",[3],< 0.2 nm/s
same,Emax,[4],89%
same,Percent Activity of CYP2C19,CYP2C19,97.2%
same,Percent Activity of CYP1A,CYP1A,89.5%
same,half-life,[5],58.6 min
same,Percent Activity of CYP3A4,CYP3A4,93.6%
same,Percent Activity of CYP2C9,CYP2C9,92.1%
same,Percent Activity of CYP2D6,CYP2D6,93.9%
same,half-life,[6],22 min
"CN(C(=O)C(c1ccccc1)c1ccccc1)[C@H](CN1CC[C@H](O)C1)c1ccccc1 [Asimadoline, asimadoline, reference compound]","Papp A→B at 60 min, 10 uM",[3],375 nm/s
"CC(C)NCC(O)COc1cccc2ccccc12 (stereo not drawn) [Propranolol, propranolol]","Papp A→B at 60 min, 10 uM",in vitro,538 nm/s
"CNCCCC[C@@H](NC(=O)[C@@H](CC(C)C)NC(=O)[C@@H](Cc1ccccc1)NC(=O)[C@H](N)Cc1ccccc1)C(=O)N1CCC(N)(C(=O)O)CC1 [Compound (3), D-Phe-D-Phe-D-Leu-(ε-Me)D-Lys-[ω(4-aminopiperidine-4-carboxylic acid)]-OH]","Papp A→B at 60 min, 10 uM",[3],< 0.2 nm/s
same,Mean palpebral opening (% Control),"[1]; Table VII, 10 mg/ml, five animals",76.0 % Control
same,ED50,[7],2.69 mg/kg
same,Percent Activity of CYP2C19,CYP2C19,103.2%
same,Percent Activity of CYP1A,CYP1A,93.1%
same,Percent Activity of CYP3A4,CYP3A4,94.3%
same,Percent Activity of CYP2C9,CYP2C9,97.4%
same,Percent Activity of CYP2D6,CYP2D6,99.5%
same,ED50 in the acetic acid-induced writhing assay,[8],0.052 mg/kg
"CNCCCC[C@@H](NC(=O)[C@@H](CC(C)C)NC(=O)[C@@H](Cc1ccccc1)NC(=O)[C@H](N)Cc1ccccc1)C(=O)N1CCCN(C(=N)N)CC1 [Compound (1), D-Phe-D-Phe-D-Leu-(ε-Me)D-Lys-[4-Amidinohomopiperazine amide]]","Papp A→B at 60 min, 10 uM",[3],< 1 nm/s
same,Percent Activity of CYP2C19,CYP2C19,98.5%
same,Percent Activity of CYP1A,CYP1A,89.8%
same,Percent Activity of CYP3A4,CYP3A4,92.5%
same,Percent Activity of CYP2C9,CYP2C9,93.2%
same,Percent Activity of CYP2D6,CYP2D6,96.0%
"CC(C)C[C@@H](NC(=O)[C@@H](Cc1ccccc1)NC(=O)[C@H](N)Cc1ccccc1)C(=O)N[C@H](CCCCNC(C)C)C(=O)N1CCC(N)(C(=O)O)CC1 [Compound (9), D-Phe-D-Phe-D-Leu-(8-iPr)D-Lys-[ω(4-aminopiperidine-4-carboxylic acid)]-OH]",Emax,[2],100%
"CN1CC[C@]23c4c5ccc(O)c4O[C@H]2[C@@H](O)C=C[C@H]3[C@H]1C5 [Morphine, morphine, reference compound]",Mean palpebral opening (% Control),"[1]; Table VIII, 10 mg/ml, ten animals",74.8 % Control
"CC(CCc1ccccc1)NCC(O)c1ccc(O)c(C(N)=O)c1 (stereo not drawn) [Labetalol, labetalol]","Papp A→B at 60 min, 10 uM",in vitro,99 nm/s
"CC[C@]1(O)C[C@@H]2CN(CCc3c([nH]c4ccccc34)[C@@](C(=O)OC)(c3cc4c(cc3OC)N(C)[C@H]3[C@@](O)(C(=O)OC)[C@H](OC(C)=O)[C@]5(CC)C=CCN6CC[C@]43[C@@H]65)C2)C1 [Vinblastine, vinblastine]","Papp A→B at 60 min, 10 uM",in vitro,< 2 nm/s
